Here are results for 4 molecules from patent US20080312164A1 (priority 2006, published 2008).

For test [1], the system named is SF-268 cells. Kind of test: Cell Titer-Glo cytotoxicity assay, SF-268. The format is cell-based. Conditions: Homo sapiens; SF-268, Cell Titer-Glo, 72 h; read-out: IC50. An excerpt: (§1) Five serial 1:2 dilutions were made with anhydrous DMSO at 100× the final concentration used in the assay.
For test [2], the system named is Hep3B cells. Kind of test: Cell Titer-Glo cytotoxicity assay, Hep3B. The format is cell-based. Conditions: Homo sapiens, Cell Titer-Glo, 72 h, read-out: IC50.
Description: as §1

The subject of test [3] is NCI-H460 cells. Kind of test: Cell Titer-Glo cytotoxicity assay, NCI-H460. Format: cell-based, human. Conditions: for IC50: Homo sapiens, NCI-H460, Cell Titer-Glo, 72 h, read-out: IC50.
Description: as §1

The subject of test [4] is NmuMG mouse mammary normal epithelial cells. Kind of test: Cell Titer-Glo cytotoxicity assay, NmuMG. The format is cell-based. Conditions: Mus musculus, Epithelial cell; NmuMG, Cell Titer-Glo, 72 h; read-out: IC50.
Description: as §1

In test [5] the test system is HCT-116 cells. Kind of test: Calcein AM cytotoxicity assay, HCT-116. Format: cell-based. Conditions: Homo sapiens; HCT-116, Calcein AM, 72 h; read-out: IC50.
Description: as §1

For test [6], the system named is NCI-H460 cells. Kind of test: Calcein AM cytotoxicity assay, NCI-H460. Format: cell-based. Conditions: Homo sapiens; NCI-H460, Calcein AM, 72 h; read-out: IC50.
Description: as §1

In test [7] the test system is SK-OV-3 cells. Kind of test: Calcein AM cytotoxicity assay, SK-OV-3. The format is cell-based. Conditions: Homo sapiens; SK-OV-3, Calcein AM, 72 h; read-out: IC50.
Description: as §1

In test [8] the test system is Du145 cells. Kind of test: Calcein AM cytotoxicity assay, Du145. Format: cell-based. Conditions: Homo sapiens, DU-145; Du145, Calcein AM, 72 h; read-out: IC50.
Description: as §1

Test [9] concerns NCI/ADR RES cells. Kind of test: Calcein AM cytotoxicity assay, NCI/ADR-RES. The format is cell-based. Conditions: Homo sapiens, Calcein AM, 72 h, read-out: IC50.
Description: as §1

For test [10], the system named is SK-OV-3 cells. The experiment in a line: Cell Titer-Glo cytotoxicity assay, SK-OV-3. Conditions: Homo sapiens; SK-OV-3, Cell Titer-Glo, 72 h; read-out: IC50. The format is cell-based.
Description: as §1

Test [11] concerns HCT-116 cells. The experiment in a line: Cell Titer-Glo cytotoxicity assay, HCT-116. The format is cell-based. Conditions: Homo sapiens; HCT-116, Cell Titer-Glo, 72 h; read-out: IC50.
Description: as §1

Test [12] has as its system human cancer cell lines. The experiment in a line: Cytotoxicity across the panel of human cancer cell lines (average, high-throughput assays). The format is cell-based. Conditions: for Cancerous Average IC50 / Average IC50 in Cancer Cell Lines / IC50: average across eight human cancer cell lines, MTT (HT-29) values excluded; for IC50: read-out: Cancerous Average IC50 / Average IC50 in Cancer Cell Lines.
Description: as §1

Test [13] relates to HT-29 cells. The experiment in a line: MTT cytotoxicity assay, HT-29. The format is cell-based. Conditions: Homo sapiens; HT-29, MTT, 24 h; read-out: IC50.
Description: The IC50 value for each library member represents at least twelve replicates of dose-response experiments conducted over five concentrations. […] In this assay, live cells were distinguished by the intracellular enzymatic activity that converts the cell-permeable molecule MTT to strongly colored formazan crystals, which are retained within live cells and absorb light at 570 nm.
MTT Cytotoxicity Assay. HT-29 cell lines were maintained in RPMI medium 1640 supplemented with 10% (wt/vol) FBS and 1% penicillin-streptomycin (PS) (100 units/mL and 100 μg/mL). Cells were harvested by trypsinization using 0.25% trypsin and 0.1% EDTA and plated at a density of 2,000-5,000 cells per well of each 96-well microtiter plate. Cells were grown for 24 h at 37° C., with 5% CO2/95% air in a humidified incubator to allow cell attachment to occur before compound addition. Library members were stored at −20° C. under desiccating conditions before the assay. Library member stocks (1000×) were prepared in falcon tubes (BD Biosciences). Five dilutions were made with DMSO at 1000× the final concentration used in the assay. The 1000× stocks (3 μL) were diluted with complete culture medium (3 mL). Each plate contained twelve replicates of cells treated with 0.1% DMSO in complete cell culture medium that served as an individual negative control. Library member stocks (1×, 200 μL) were added to aspirated cells and replicated twelve times on each plate. Cells were incubated with the library members for 24 h before optical density reading. Test plates were removed from the incubator and washed once in sterile PBS to remove serum containing library members. Freshly-made 10×MTT solution in sterile PBS (5 mg/mL) was diluted 1:10 in serum-free culture medium and was sterilized using a 0.2 μm filter. Diluted MTT solution (1×, 50 μL) was added to each well and the plates were incubated in the dark for 2 h. Test plates were centrifuged at 1800×g for 5 min at 4° C. using a Beckman GPR centrifuge. MTT solution was removed by aspiration and 100 μL DMSO was added to each well to lyse cells and solubilize formazan crystals. Test plates were incubated in the dark at room temperature for 10 min. Plates were read for optical density at 570 nm.
IC50 Calculations. For each library member, at least three dose-response experiments were conducted on separate plates. […] To calculate IC50, percent inhibitions were plotted as a function of log[concentration] and then fit to a four-parameter logistic model that allowed for a variable Hill slope by using XLFIT 4.1 (ID Business Solutions, Emeryville, Calif.).
The test system of test [14] is NCI/ADR RES cells. Kind of test: Cell Titer-Glo cytotoxicity assay, NCI/ADR-RES. Format: cell-based, human. Conditions: for IC50: Homo sapiens, NCI/ADR-RES, Cell Titer-Glo, 72 h, read-out: IC50.
Description: as §1

The subject of test [15] is Du145 cells. Kind of test: Cell Titer-Glo cytotoxicity assay, Du145. The format is cell-based. Conditions: Homo sapiens, DU-145; Du145, Cell Titer-Glo, 72 h; read-out: IC50.
Description: as §1

Test [16] deals with SF-268 cells. The experiment in a line: Calcein AM cytotoxicity assay, SF-268. Format: cell-based. Conditions: Homo sapiens; SF-268, Calcein AM, 72 h; read-out: IC50.
Description: as §1

For test [17], the system named is NmuMG mouse mammary normal epithelial cells. Kind of test: Calcein AM cytotoxicity assay, NmuMG. Format: cell-based. Conditions: Epithelial cell, NmuMG, Calcein AM, 72 h, read-out: IC50.
Description: as §1

Test [18] concerns MCF7 cells. Kind of test: Calcein AM cytotoxicity assay, MCF7. Conditions: Homo sapiens; MCF7, Calcein AM, 72 h; read-out: IC50. The format is cell-based.
Description: as §1

The test system of test [19] is Hep3B cells. Kind of test: Calcein AM cytotoxicity assay, Hep3B. Format: cell-based. Conditions: Homo sapiens, Calcein AM, 72 h, read-out: IC50.
Description: as §1

Test [20] concerns MCF7 cells. Kind of test: Cell Titer-Glo cytotoxicity assay, MCF7. The format is cell-based, human. Conditions: for IC50: Homo sapiens, MCF7, Cell Titer-Glo, 72 h, read-out: IC50.
Description: as §1

Marks after values point to notes of the source that are not given here. Some results are limits rather than exact numbers.

Turning to `S=C=NCC1CCCCC1` [Compound 18, (isothiocyanatomethyl)cyclohexane], the IC50 is 15.4 µM in test [1]; 29.3 µM in test [2]; over 50 µM in test [3]; 14.8 µM in test [4]; 21.9 µM in test [5]; 48.1 µM in [6]. The IC50 in test [7] is 29.1 µM; in test [8], 18.7 µM; in test [9], over 50 µM; in test [10], 33.7 µM; in test [11], 20.9 µM; in [12], 29.3 µM. Besides, the IC50 was over 50 µM in test [13]; over 50 µM in test [14]; 24.4 µM in test [15]; 15.1 µM in test [16]; 22.5 µM in test [17]; over 30 µM in [18]. For the same molecule, the IC50 is 42.1 µM in test [19] and 33.3 µM in test [20]. Further, the “Cancerous Average IC50 / Average IC50 in Cancer Cell Lines” value in test [12] is 29.31^d μM.
In the case of `COc1cccc(CN=C=S)c1OC` [Compound 27], the IC50 in test [1] is 3.21 µM; in [2] it was 4.87 µM; in test [3] it was 16.1 µM; in [4] it was 3.78 µM; in test [5], under 1.88 µM; in test [6], 15.8 µM. Moreover, the IC50 in [7] was 2.55 µM; in [8], 2.46 µM; in [9], 5.61 µM; in [10] it was 5.47 µM; in [11], 6.72 µM; in [14], 20.8 µM. In addition, the IC50 in test [15] is 8.24 µM; in test [16] it was 4.26 µM; in test [17] it was 5.59 µM; in [18], 5.81 µM; in [19], 1.37 µM; in test [20], 3.22 µM.
On to `S=C=N[C@@H]1CCCc2ccccc21` [Compound 32, (R)-1-isothiocyanato-1,2,3,4-tetrahydronaphthalene], for which the IC50 in [1] is 7.73 µM; in test [2], 3.59 ± 0.16 µM; in test [3] it was 13.3 µM; in test [4] it was 17 µM; in test [5], 12.5 µM; in [6], 18.7 µM. The IC50 in test [7] was 5.18 µM; in test [8], 5.27 µM; in [10], 7.74 µM; in test [11] it was 9.05 µM; in [12], 8.27 µM; in test [13], 20.4 µM. The IC50 is 8.66 µM in test [15]; 5.75 µM in [16]; 17.2 µM in [17]; 3.88 µM in [18]; under 3.13 µM in test [19]; 7.83 µM in test [20]. Further, the “Cancerous Average IC50 / Average IC50 in Cancer Cell Lines” value in [12] is 8.27^g μM. Moreover, in test [12] (in general, across cell lines), the “fold more potent than 23” value was about 1.2 fold. Further, in [12] (in general, across cell lines), the “fold more potent than the S-enantiomer 31” value is given as “approximately 2.0 fold”.
On to `C[S@+]([O-])CCCCN=C=S` [D-sulforaphane], for which the “% bioactive (relative to L-sulforaphane)” value is given as 14% in test [3] (NCI-H460, inferred from racemate 13 versus 2); 9% in test [14] (NCI/ADR RES, inferred from racemate 13 versus 2); 0% in test [20] (MCF7, inferred from racemate 13 versus 2).
